First: Cc1cc2c(-c3cccc(/C=C/C(=O)O)c3)c(CC(=O)Nc3ccccc3C(F)(F)F)c(=O)oc2cc1Cl [Example 15, (2E)-3-[3-[7-chloro-6-methyl-2-oxo-3-(2-oxo-2-[[2-(trifluoromethyl)phenyl]amino]ethyl)-2H-chromen-4-yl]phenyl]-2-propenoic acid]
Second: O=C(O)/C=C/c1cccc(-c2c(CC(=O)Nc3ccc(F)cc3C(F)(F)F)c(=O)oc3cc(Cl)c(F)cc23)c1 [Example 17, (2E)-3-[3-[7-chloro-6-fluoro-3-[2-[[4-fluoro-2-(trifluoromethyl)phenyl]amino]-2-oxoethyl]-2-oxo-2H-chromen-4-yl]phenyl]-2-propenoic acid]
The melting point of the first is higher: 252 to 254 °C for the first, 245 to 247 °C for the second.

Cc1cc2c(-c3cccc(/C=C/c4nnn[nH]4)c3)c(CC(=O)Nc3ccc(F)cc3C(F)(F)F)c(=O)oc2cc1Cl [Example 41, 2-(7-chloro-6-methyl-2-oxo-4-{3-[(E)-2-(1H-tetrazol-5-yl)ethenyl]phenyl}-2H-chromen-3-yl)-N-[4-fluoro-2-(trifluoromethyl)phenyl]acetamide] and CCOC(=O)/C=C/C=C/c1cccc(-c2c(CC(=O)Nc3ccc(F)cc3C(F)(F)F)c(=O)oc3cc(Cl)c(C)cc23)c1 [Example 51, Ethyl (2E,4E)-5-[3-(7-chloro-3-{2-[4-fluoro-2-(trifluoromethyl)anilino]-2-oxoethyl}-6-methyl-2-oxo-2H-chromen-4-yl)phenyl]-2,4-pentadienoate] fall in the same range of melting point: 216 to 218 °C for the first, 216 to 218 °C for the second.

Compared with Cc1cc2c(-c3cccc(-c4noc(=S)[nH]4)c3)c(CC(=O)Nc3ccc(F)cc3C(F)(F)F)c(=O)oc2cc1Cl [Example 102, 2-{7-chloro-6-methyl-2-oxo-4-[3-(5-thioxo-4,5-dihydro-1,2,4-oxadiazol-3-yl)phenyl]-2H-chromen-3-yl}-N-[4-fluoro-2-(trifluoromethyl)phenyl]acetamide], CCOC(=O)CSCc1cccc(-c2c(CC(=O)Nc3ccc(F)cc3C(F)(F)F)c(=O)oc3cc(Cl)c(C)cc23)c1 [Example 63, Ethyl ({3-[7-chloro-3-(2-{[4-fluoro-2-(trifluoromethyl)phenyl]amino}-2-oxoethyl)-6-methyl-2-oxo-2H-chromen-4-yl]benzyl}thio)acetate] is lower in melting point: 178 to 180 °C for the first, 106 to 108 °C for the second.

First: CCOC(=O)/C=C/c1cc(-c2c(CC(=O)Nc3ccc(Cl)cc3C(F)(F)F)c(=O)oc3cc(Cl)c(C)cc23)ccc1F [Example 3, ethyl (2E)-3-[5-[7-chloro-3-[2-[[4-chloro-2-(trifluoromethyl)phenyl]amino]-2-oxoethyl]-6-methyl-2-oxo-2H-chromen-4-yl]-2-fluorophenyl]-2-propenoate]
Second: CCOC(=O)/C=C/c1cccc(-c2c(CC(=O)Nc3ccc(F)cc3C(F)(F)F)c(=O)oc3cc(Cl)ccc23)c1 [Example 7, ethyl (2E)-3-[3-[7-chloro-3-[2-[[4-fluoro-2-(trifluoromethyl)phenyl]amino]-2-oxoethyl]-2-oxo-2H-chromen-4-yl]phenyl]-2-propenoate]
The melting point of the first is lower: 160 to 162 °C for the first, 166 to 169 °C for the second.

For O=C(O)CCc1cccc(-c2c(CC(=O)Nc3ccc(F)cc3C(F)(F)F)c(=O)oc3cc(Cl)c(F)cc23)c1 [Example 22, 3-[3-[7-chloro-6-fluoro-3-[2-[[4-fluoro-2-(trifluoromethyl)phenyl]amino]-2-oxoethyl]-2-oxo-2H-chromen-4-yl]phenyl]propionic acid], the melting point was 198 to 200 °C.

With Cc1cc2c(-c3cccc(-c4nsc(=O)[nH]4)c3)c(CC(=O)Nc3ccc(F)cc3C(F)(F)F)c(=O)oc2cc1Cl [Example 104, 2-{7-chloro-6-methyl-2-oxo-4-[3-(5-oxo-4,5-dihydro-1,2,4-thiadiazol-3-yl)phenyl]-2H-chromen-3-yl}-N-[4-fluoro-2-(trifluoromethyl)phenyl]acetamide] the melting point was 269 to 271 °C (dec.).
